Assay results as given in ChEMBL document CHEMBL1156694, “In silico screening of HIV-1 non-nucleoside reverse transcriptase and protease inhibitors” (Eur J Med Chem, 2008).

Columns and labels:
[1] = Inhibition of HIV reverse transcriptase; set-up: species or system Human immunodeficiency virus
[2] = target: Protease (Human immunodeficiency virus 1, UniProt Q9YQ12); assay: Inhibition of HIV1 protease
[3] = Inhibition of HIV protease; set-up: species or system Human immunodeficiency virus

Chain of Protease (Q9YQ12 whole entry): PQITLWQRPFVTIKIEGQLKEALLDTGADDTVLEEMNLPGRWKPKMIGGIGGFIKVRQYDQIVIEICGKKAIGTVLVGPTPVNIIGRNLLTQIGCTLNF

IC50 [1]	Structure (SMILES)	other results
< 100000 nM	C=CCn1c(CSc2nc3ccccc3s2)nnc1SCC(=O)NCc1cccnc1	
	Cc1c(O)cccc1C(=O)N[C@@H](Cc1ccccc1)[C@H](O)CN(CC(C)C)S(=O)(=O)c1ccc2ncsc2c1	IC50 [2]: < 10 nM
50 nM	CCOC(=O)Cc1nnc(NC(=O)[C@@H](CC)Sc2nnnn2-c2ccccc2)s1	
32 nM	CC(C)n1nc(COC(N)=O)c(Cc2ccncc2)c1Sc1cc(Cl)cc(Br)c1	
	CC(C)(C)OC(=O)N[C@@H](Cc1ccccc1)[C@@H](O)[C@@]1(Cc2ccccc2)NC=C([C@H]2c3ccccc3C[C@@H]2O)C1=O	IC50 [3]: 12 nM
5 nM	Cc1cc(C)c(-n2nnnc2SCC(=O)Nc2ccccc2Cl)c(C)c1	
